ChEMBL document CHEMBL4507269, “Data for DCP probe BAY-386” (2021)

Experiments:
[1] = biological target: Sigma intracellular receptor 2 (Homo sapiens, UniProt Q5BJF2); assay: GPCRScan assay: inhibition of Sigma 2; set-up: radioligand conc. used [nm] 5.0, parental cells HEKT
[2] = biological target: T1, Alpha-1D adrenergic receptor (Homo sapiens) (UniProt P25100); assay: Inhibition of Adrenergic alpha1D at 10 µM in the Eurofins-Panlabs radioligand binding assay (Eurofins_assay_203400); conditions: Compound concentration 10.0 uM
T1 sequence (whole entry): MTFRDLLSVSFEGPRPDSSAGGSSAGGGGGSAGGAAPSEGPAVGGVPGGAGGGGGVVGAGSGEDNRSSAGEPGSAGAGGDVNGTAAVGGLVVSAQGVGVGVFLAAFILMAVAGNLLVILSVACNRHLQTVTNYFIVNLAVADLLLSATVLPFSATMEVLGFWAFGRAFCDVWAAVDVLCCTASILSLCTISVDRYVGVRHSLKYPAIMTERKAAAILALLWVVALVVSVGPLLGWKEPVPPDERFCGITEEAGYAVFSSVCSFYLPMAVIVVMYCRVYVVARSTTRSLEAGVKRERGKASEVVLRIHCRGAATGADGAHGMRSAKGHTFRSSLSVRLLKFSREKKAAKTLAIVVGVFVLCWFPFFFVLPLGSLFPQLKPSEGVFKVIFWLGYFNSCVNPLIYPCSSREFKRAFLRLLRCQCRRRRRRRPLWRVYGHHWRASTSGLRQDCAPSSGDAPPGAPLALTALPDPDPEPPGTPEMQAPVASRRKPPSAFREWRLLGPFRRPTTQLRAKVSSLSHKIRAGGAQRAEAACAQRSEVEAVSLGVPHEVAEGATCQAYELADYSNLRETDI

[3] = biological target: voltage-gated sodium channel, site 2 (Rattus norvegicus, UniProt F1LQQ7+O08562+O88420+O88457+P04774+P04775+P08104+P15389+P15390+Q62968); assay: Inhibition of Sodium Channel, Site 2 at 10 µM in the Eurofins-Panlabs radioligand binding assay (Eurofins_assay_279510); type: protein assay; set-up: ligand concentration 5 nM, non-specific ligand with concentration 100 µM Veratridine, incubation time 60 min, incubation temperature 37 °C; conditions: male, Wistar, rat whole brain (except cerebellum) membranes, probe [3H] Batrachotoxinin, compound concentration 10 uM
[4] = biological target: B2 bradykinin receptor (Homo sapiens) (UniProt P30411); assay: Bradykinin B2 Eurofins-Panlabs radioligand binding assay; conditions: Compound concentration 10.0 uM
B2 bradykinin receptor (Homo sapiens), sequence (P30411 whole entry): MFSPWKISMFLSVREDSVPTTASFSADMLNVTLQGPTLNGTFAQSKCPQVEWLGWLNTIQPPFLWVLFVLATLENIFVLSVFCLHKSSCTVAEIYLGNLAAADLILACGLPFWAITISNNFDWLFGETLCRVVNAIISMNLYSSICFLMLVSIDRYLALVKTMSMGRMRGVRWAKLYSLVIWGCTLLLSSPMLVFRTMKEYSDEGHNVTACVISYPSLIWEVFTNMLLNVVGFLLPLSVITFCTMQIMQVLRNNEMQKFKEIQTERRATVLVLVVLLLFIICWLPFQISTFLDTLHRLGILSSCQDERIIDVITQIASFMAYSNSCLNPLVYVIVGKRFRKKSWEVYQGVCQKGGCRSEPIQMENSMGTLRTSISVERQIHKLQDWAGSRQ

[5] = biological target: Substance-P receptor (Homo sapiens) (UniProt P25103); assay: Tachykinin NK1 Eurofins-Panlabs radioligand binding assay; conditions: Compound concentration 10.0 uM
Substance-P receptor (Homo sapiens), sequence (P25103 whole entry): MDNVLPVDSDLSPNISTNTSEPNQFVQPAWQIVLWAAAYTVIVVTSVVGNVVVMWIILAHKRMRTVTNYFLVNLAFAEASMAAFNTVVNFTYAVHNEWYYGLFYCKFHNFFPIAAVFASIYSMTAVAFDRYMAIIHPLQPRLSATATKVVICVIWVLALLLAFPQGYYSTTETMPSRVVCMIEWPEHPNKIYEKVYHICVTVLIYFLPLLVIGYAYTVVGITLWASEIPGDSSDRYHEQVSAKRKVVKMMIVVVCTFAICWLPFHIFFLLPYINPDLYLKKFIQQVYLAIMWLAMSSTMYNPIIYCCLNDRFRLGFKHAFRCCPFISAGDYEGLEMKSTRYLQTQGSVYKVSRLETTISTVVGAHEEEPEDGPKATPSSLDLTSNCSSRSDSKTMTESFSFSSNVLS

[6] = biological target: T2, Adenosine receptor A3 (Homo sapiens) (UniProt P0DMS8); conditions: Compound concentration 10.0 uM
T2 sequence (whole entry): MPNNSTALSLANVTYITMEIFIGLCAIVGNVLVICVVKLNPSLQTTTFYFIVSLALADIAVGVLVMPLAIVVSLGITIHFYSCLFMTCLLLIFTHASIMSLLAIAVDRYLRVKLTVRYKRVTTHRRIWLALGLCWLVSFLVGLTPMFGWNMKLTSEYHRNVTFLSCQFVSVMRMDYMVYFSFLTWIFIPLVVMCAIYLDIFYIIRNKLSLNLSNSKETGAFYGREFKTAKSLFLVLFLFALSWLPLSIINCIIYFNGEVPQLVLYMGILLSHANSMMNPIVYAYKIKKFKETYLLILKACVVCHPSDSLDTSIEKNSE

[7] = biological target: T3, Alpha-1A adrenergic receptor (Homo sapiens) (UniProt P35348); conditions: Rattus norvegicus; Compound concentration 10.0 uM
T3 sequence (whole entry): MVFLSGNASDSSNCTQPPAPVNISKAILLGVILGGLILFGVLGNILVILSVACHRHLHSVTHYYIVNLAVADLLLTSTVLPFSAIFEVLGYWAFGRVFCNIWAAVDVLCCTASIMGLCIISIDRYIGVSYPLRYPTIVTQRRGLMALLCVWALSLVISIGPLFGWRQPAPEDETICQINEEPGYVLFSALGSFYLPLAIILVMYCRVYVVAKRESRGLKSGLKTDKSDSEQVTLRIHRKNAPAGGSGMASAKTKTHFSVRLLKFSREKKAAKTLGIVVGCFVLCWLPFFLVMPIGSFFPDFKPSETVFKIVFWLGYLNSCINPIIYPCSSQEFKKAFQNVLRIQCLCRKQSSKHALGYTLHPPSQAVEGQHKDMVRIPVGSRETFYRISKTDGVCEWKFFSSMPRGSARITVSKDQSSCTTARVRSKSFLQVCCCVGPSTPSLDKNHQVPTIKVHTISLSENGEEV

[8] = biological target: D(1A) dopamine receptor (Homo sapiens) (UniProt P21728); conditions: Compound concentration 10.0 uM
D(1A) dopamine receptor (Homo sapiens), sequence (P21728 whole entry): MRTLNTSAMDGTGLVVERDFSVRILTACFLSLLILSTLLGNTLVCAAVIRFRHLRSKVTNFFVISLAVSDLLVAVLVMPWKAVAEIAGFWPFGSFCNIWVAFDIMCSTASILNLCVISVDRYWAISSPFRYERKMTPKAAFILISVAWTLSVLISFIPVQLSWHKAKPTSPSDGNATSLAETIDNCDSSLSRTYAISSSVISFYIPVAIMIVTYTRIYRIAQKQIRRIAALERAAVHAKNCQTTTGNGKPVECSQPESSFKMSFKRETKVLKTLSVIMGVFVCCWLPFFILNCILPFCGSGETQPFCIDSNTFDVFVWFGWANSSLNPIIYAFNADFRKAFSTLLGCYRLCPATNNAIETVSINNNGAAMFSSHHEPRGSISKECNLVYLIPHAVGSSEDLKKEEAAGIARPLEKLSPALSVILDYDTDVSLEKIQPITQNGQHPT

[9] = biological target: Endothelin-1 receptor (Homo sapiens) (UniProt P25101); conditions: Compound concentration 10.0 uM
Endothelin-1 receptor (Homo sapiens), sequence (P25101 whole entry): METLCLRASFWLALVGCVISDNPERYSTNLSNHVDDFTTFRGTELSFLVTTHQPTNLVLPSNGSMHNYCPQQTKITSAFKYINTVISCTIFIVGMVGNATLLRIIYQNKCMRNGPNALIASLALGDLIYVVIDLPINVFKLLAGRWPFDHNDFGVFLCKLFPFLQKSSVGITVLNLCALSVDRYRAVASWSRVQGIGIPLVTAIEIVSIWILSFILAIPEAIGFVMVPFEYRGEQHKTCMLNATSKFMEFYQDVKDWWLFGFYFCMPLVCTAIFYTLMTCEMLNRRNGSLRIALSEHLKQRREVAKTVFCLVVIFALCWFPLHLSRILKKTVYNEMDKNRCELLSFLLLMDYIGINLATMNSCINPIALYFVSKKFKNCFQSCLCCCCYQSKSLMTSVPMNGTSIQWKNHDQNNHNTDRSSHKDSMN

[10] = biological target: Histamine H2 receptor (Homo sapiens) (UniProt P25021); conditions: Compound concentration 10.0 uM
Histamine H2 receptor (Homo sapiens), sequence (P25021 whole entry): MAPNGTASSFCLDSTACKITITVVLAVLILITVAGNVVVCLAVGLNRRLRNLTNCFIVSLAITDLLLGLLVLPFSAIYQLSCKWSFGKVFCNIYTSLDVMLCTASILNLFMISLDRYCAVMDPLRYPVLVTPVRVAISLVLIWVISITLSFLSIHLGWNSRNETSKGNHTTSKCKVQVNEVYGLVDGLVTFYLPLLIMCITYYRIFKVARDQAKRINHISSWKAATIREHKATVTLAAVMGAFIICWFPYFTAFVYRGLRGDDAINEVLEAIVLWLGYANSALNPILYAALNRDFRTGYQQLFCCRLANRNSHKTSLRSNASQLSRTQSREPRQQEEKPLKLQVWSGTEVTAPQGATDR

[11] = biological target: T4, 5-hydroxytryptamine receptor 1A (Homo sapiens) (UniProt P08908); conditions: Compound concentration 10.0 uM
T4 sequence (whole entry): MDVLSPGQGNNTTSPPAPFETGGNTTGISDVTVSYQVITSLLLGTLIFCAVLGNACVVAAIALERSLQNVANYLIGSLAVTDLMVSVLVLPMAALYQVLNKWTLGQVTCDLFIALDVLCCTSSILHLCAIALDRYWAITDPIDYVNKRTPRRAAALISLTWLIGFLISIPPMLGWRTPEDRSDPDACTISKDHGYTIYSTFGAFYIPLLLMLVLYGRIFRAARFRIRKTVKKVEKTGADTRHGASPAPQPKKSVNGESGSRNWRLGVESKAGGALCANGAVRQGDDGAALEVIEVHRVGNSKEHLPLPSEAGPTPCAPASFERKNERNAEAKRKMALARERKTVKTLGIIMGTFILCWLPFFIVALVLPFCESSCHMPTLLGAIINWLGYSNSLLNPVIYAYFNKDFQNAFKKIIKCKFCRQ

[12] = biological target: T5, Muscarinic acetylcholine receptor M4 (Homo sapiens) (UniProt P08173); conditions: Compound concentration 10.0 uM
T5 sequence (whole entry): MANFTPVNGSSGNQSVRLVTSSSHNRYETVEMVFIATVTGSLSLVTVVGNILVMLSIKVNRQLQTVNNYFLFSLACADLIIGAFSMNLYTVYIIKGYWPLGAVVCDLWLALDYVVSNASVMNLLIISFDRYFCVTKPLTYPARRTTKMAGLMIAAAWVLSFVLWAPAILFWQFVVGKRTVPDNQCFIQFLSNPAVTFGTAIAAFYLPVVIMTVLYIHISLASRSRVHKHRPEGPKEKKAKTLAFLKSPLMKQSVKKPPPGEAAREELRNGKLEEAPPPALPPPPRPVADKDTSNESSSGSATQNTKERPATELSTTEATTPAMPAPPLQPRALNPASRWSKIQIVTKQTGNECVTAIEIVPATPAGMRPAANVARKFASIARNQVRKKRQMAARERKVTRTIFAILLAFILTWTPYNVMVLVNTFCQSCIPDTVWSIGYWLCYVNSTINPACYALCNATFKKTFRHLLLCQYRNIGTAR

Sigma intracellular receptor 2, sequence (Q5BJF2 whole entry): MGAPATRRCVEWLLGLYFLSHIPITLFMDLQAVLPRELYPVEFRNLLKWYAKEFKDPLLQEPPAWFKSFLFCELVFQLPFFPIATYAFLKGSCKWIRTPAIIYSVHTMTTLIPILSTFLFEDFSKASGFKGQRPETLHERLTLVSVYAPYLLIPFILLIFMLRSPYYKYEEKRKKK

SMILES | Ki ([1]; read-out: Ki) [nM] | Ki ([1]; read-out: pKi (converted)) [nM] | inhibition [2] [%] | inhibition at 60 min, 10 µM [3] [%] | inhibition [4] [%] | inhibition [5] [%] | inhibition [6] [%] | inhibition [7] [%] | inhibition [8] [%] | inhibition [9] [%] | inhibition [10] [%] | inhibition [11] [%] | inhibition [12] [%]
O=C(N1CCS(=O)(=O)CC1)N1C[C@H](c2ccc(OC(F)(F)F)cc2)C[C@H](c2nc(C3CC3)no2)C1 [BAY-386] | 1200 | 1150 | -4 | 55 | 11 | -2 | 12 | 1 | 4 | 2 | -3 | -9 | –
Cc1noc([C@H]2C[C@@H](c3ccc(C(F)(F)F)cc3)CN(C(=O)N3CCS(=O)(=O)C3)C2)n1 [BAY-448] | – | – | – | – | – | – | – | – | – | – | – | – | -0.58
